According to patent US10526297B2, “Benzylideneguanidine derivatives and therapeutic use for the treatment of protein misfolding diseases” (United Kingdom Research and Innovation, priority 2013, dated 2020):
Read-outs that look alike come from different tables or passages of the source.

Assays:
PPP1R15A or PPP1R15B = assay: Selectivity assessment inferred from the tests; assay type: cell-based; details: inferred from translation inhibition in stressed/non-stressed cells
HeLa cells [1] = assay: Cytoprotection from ER Stress (Test 1); details: 2.5 μg/ml tunicamycin 6 h, inhibitors 0.2-5 μM, WST-8 viability 48 h after tunicamycin, relative to control
HeLa cells [2] = assay: Assessment of Translation Rates in Stressed Cells (Test 3); details: tunicamycin 2.5 μg/ml together with compounds 50 μM, 35S-methionine labelling
P0S63del mice = details: cited from earlier work
[3] = tested on: animal models of alpha-synucleinopathy; details: two animal models of alpha-synucleinopathy; cited from earlier work
[4] = tested on: G93A-SOD1 transgenic mouse; details: cited from earlier work
HeLa cells [5] = details: tunicamycin, cited from earlier work
HeLa cells [6] = assay: Assessment of Translation Rates in Unstressed Cells (Test 2); assay type: cell-based; details: compounds 50 μM, 0.5-7.5 h, 35S-methionine labelling
Description: Following labelling, cells were washed with ice-cold PBS and lysed in 75 μl Laemmli Buffer. […] Gels were then stained with Coomassie Brilliant Blue R-250 and analyzed by phosphorimaging.

PPP1R15A (GADD34) = PPP1R15A (GADD34) (Homo sapiens, UniProt O75807); details: cited from earlier work
PPP1R15B (CReP) = molecular target: T1, PPP1R15B (CReP) (Homo sapiens, UniProt Q5SWA1); details: constitutive PPP1R15B (CReP); cited from earlier work
T1 sequence (Q5SWA1 1-713): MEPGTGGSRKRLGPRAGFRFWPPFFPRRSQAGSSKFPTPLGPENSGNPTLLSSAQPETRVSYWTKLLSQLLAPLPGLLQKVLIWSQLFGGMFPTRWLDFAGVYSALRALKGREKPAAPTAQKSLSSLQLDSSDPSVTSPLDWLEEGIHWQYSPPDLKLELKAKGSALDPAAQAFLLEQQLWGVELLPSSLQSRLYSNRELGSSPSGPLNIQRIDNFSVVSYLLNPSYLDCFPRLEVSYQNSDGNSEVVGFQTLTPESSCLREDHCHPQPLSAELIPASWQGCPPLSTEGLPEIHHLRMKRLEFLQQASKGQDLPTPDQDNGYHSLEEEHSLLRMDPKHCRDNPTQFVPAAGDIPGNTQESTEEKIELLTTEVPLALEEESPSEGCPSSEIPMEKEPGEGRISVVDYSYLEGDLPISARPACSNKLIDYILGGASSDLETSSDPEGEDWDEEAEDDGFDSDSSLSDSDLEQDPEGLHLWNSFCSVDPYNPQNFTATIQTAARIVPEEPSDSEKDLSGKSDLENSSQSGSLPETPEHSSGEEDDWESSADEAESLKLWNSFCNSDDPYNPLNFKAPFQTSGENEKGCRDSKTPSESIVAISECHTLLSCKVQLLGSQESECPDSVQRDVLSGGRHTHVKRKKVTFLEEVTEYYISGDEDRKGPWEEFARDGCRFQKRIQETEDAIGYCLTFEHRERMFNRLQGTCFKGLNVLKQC

non-stressed cells = details: cited from earlier work
mutant Huntingtin = details: cell-based assays, cited from earlier work
[7] = tested on: Min6 and INS-1 pancreatic beta-cells; details: expression in the ER of Min6 and INS-1 cells; cited from earlier work
[8] = tested on: retinal pigment epithelium (RPE); details: rat AMD model; cited from earlier work
[9] = tested on: choroidal neovascularization (CNV); details: laser-induced rat AMD model; cited from earlier work
choroidal blood flow = details: in vivo; cited from earlier work
prion infected mice = details: mouse, in vivo; cited from earlier work

Chain of PPP1R15A (GADD34) (O75807 whole entry, species assumed): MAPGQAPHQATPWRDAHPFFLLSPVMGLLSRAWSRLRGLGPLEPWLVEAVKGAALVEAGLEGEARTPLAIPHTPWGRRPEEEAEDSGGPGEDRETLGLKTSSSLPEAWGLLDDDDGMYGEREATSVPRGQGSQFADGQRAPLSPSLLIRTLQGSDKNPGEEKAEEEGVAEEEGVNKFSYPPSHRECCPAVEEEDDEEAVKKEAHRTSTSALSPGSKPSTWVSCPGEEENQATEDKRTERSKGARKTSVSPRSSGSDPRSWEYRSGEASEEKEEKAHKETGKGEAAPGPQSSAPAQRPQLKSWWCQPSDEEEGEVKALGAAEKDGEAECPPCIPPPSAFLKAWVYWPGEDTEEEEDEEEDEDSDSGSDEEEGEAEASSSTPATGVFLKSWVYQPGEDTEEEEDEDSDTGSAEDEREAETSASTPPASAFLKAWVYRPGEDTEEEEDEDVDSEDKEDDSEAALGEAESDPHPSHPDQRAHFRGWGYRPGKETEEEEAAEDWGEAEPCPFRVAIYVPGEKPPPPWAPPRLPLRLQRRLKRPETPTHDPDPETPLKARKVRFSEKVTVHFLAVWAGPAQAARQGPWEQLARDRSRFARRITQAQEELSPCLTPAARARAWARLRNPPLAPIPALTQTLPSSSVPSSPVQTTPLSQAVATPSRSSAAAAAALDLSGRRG

Compound | Selectivity assessment Selectivity towards PPP1R15A or PPP1R15B (PPP1R15A or PPP1R15B) | Test 1 Survival following ER stress (increase %) (HeLa cells [1]) | Test 3 Translation attenuation after Tm (HeLa cells [2]) | Test 2 Translation inhibition in non-stressed cells (HeLa cells [6]) | also measured
Cc1nnc(N/N=C/c2ccccc2Cl)[nH]c1=O [Example 6, 2-chlorobenzaldehyde (6-methyl-5-oxo-4,5-dihydro-1,2,4-triazin-3-yl)hydrazone] | confirmed selective inhibitors of PPP1R15A | 120% | prolonged | – | –
O=C(/C=C/c1ccccc1)NC(NC(=S)Nc1cccc2cccnc12)C(Cl)(Cl)Cl (stereo not shown) [Salubrinal] | – | – | – | – | motor capacity in rotarod analysis (P0S63del mice; P0S63del mice): regained almost normal motor capacity; toxicity (P0S63del mice; mouse, in vivo): toxic; disease manifestations [3]: significantly attenuates disease manifestations; life span [4]: extends the life span
Clc1cccc(Cl)c1N=C1NCCN1 [clonidine] | – | – | – | – | protection of cells from cytotoxic ER stress (in words) (HeLa cells [5]): Neither the α2-adrenergic receptor agonist clonidine, nor the α2-adrenergic receptor antagonist efaroxan protected cells
N=C(N)N/N=C/c1c(F)cccc1Cl [Example 15, 1-[(E)-[(2-chloro-6-fluorophenyl)methylidene]amino]guanidine] | – | 160% | prolonged | – | –
N=C(N)N/N=C/c1c(F)cncc1Cl [Example 16, 1-[(E)-[(3-chloro-5-fluoropyridin-4-yl)methylidene]amino]guanidine] | – | 140% | – | YES | –
N=C(N)N/N=C/c1ccccc1Br [Example 2, 1-[(E)-[(2-bromophenyl)methylidene]amino]-guanidine] | inhibit both PPP1R15A and B | 40% | prolonged | YES | –
N=C(N)N/N=C/c1ccncc1Cl [Example 13, 1-[(E)-[(3-chloropyridin-4-yl)methylidene]amino]guanidine] | – | 60-80% | – | – | –
CC(=O)NC(=N)N/N=C/c1ccccc1Cl [Example 8, N-{N-[(E)-[(2-chlorophenyl)methylidene]amino]carbamimidoyl}acetamide] | inhibit both PPP1R15A and B | 100% | prolonged | YES | –
NC(N)=N/N=C/c1c(Cl)cccc1Cl [Guanabenz, 2-(2,6-dichlorobenzylidene)hydrazinecarboximidamide] | – | – | – | – | EC50 (HeLa cells [5]; read-out: median effective concentration (cells surviving ER stress)): ~400 nM; protection of cells from cytotoxic ER stress (in words) (HeLa cells [5]): doubled the number of cells surviving ER stress; binding to PPP1R15A (PPP1R15A (GADD34)): binding to a regulatory subunit of protein phosphatase 1, PPP1R15A (GADD34); binding to PPP1R15B (PPP1R15B (CReP)): does not bind; translation inhibition in non-stressed cells (non-stressed cells): does not inhibit translation in non-stressed cells; mutant huntingtin accumulation (mutant Huntingtin): attenuating accumulation of mutant Huntingtin; mutant huntingtin accumulation (mutant Huntingtin; listed as guanabenz): reduces mutant huntingtin accumulation in cells; protection against lethal effects of Insulin Akita mutant expression [7]: protection against the lethal effects; protection of RPE from NalO3-induced degeneration [8]: significantly protected; development of choroidal neovascularization (CNV) [9]: inhibited the development of choroidal neovascularization (CNV); choroidal blood flow (choroidal blood flow): increased choroidal blood flow markedly; symptoms of prion infected mice (prion infected mice): reduces the symptoms
Cc1ccccc1/C=N/NC(=N)N [Example 4, 1-[(E)-[(2-methylphenyl)methylidene]amino]guanidine] | inhibit both PPP1R15A and B | 100% | prolonged | YES | –
COC(=O)NC(=N)N/N=C/c1ccccc1Cl [Example 9, methyl N-{N-[(E)-[(2-chlorophenyl)methylidene]amino]carbamimidoyl}carbamate] | – | 20% | – | – | –
CCC1(C2=NCCN2)Cc2ccccc2O1 (stereo not shown) [efaroxan] | – | – | – | – | protection of cells from cytotoxic ER stress (in words) (HeLa cells [5]): Neither the α2-adrenergic receptor agonist clonidine, nor the α2-adrenergic receptor antagonist efaroxan protected cells
N=C(N)N/N=C/c1ccccc1F [Example 3, 1-[(E)-[(2-fluorophenyl)methylidene]amino]-guanidine] | – | 80% | prolonded | YES | –
N=C(N)N/N=C/c1ccc(F)cc1Cl [Example 7, 1-[(E)-[(2-chloro-4-fluorophenyl)methylidene]amino]guanidine] | inhibit both PPP1R15A and B | 160% | prolonged | YES | –
